This is an account of results in patent US20240018140A1, “MODIFIED IMIDAZOPYRIDINES AS GLUCOSYLCERAMIDE SYNTHASE INHIBITORS” (Merck Sharp & Dohme LLC, priority 2020, published 2024).

glucosylceramide synthase (GCS), sequence (Q16739 whole entry): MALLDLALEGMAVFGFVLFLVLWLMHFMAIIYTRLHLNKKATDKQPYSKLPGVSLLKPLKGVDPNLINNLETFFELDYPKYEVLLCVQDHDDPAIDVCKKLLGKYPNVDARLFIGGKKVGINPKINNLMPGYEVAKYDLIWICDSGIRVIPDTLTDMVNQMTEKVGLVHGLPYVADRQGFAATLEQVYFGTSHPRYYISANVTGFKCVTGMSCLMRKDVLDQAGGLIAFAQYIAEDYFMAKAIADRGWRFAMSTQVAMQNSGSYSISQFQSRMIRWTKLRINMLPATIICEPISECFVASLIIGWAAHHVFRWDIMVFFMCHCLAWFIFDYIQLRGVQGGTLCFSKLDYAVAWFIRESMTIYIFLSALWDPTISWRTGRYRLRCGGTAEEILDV

The target in the experiment is glucosylceramide synthase (GCS) (Homo sapiens (Human), UniProt Q16739). Briefly: UDP-Glo glucosylceramide synthase biochemical assay. To be noted: endogenous GCS in Golgi preparations from human A375 malignant melanoma skin cells; C6 ceramide and UDP-glucose substrates; 20 h incubation; UDP detected by luminescence. From the text:
UDP-Glo™ Glucosylceramide Synthase Biochemical Assay
A UDP-Glo™ glucosylceramide synthase biochemical assay was utilized to evaluate the effect of test compounds on the activity of endogenous levels of GCS enzyme contained within Golgi preparations isolated from human A375 malignant melanoma skin cells. The UDP-Glo™ glucosylceramide synthase assay uses UDP-Glucose as a nucleotide-glycosyl donor and ceramide as substrate acceptor molecules. In the reaction, glucosylceramide synthase (GCS) transfers glucose from UDP-Glucose to ceramide. Glucosylceramide and UDP are released as products.
Using Promega's UDP-Glo™ Glycosyltransferase assay kit (Promega Corporation, Madison, WI, USA (Promega)), GCS activity was indirectly measured by detecting the amount of UDP produced. An aliquot of GCS enzyme (1.5 μg crude golgi preparation, total protein) and titrated test compound were aliquoted to each well and incubated for 30 minutes at room temperature. […] An equivalent volume of substrate mixture was then added to each well. Following a 20 h incubation at room temperature to allow for GCS turnover of substrate, an equal volume of UDP detection reagent (Promega) was added to each well and incubated for an additional 75 minutes at room temperature to simultaneously convert the accumulated UDP product into ATP and generate light in a luciferase reaction. The generated light was detected using a luminometer. […] luminescence values (RLUs) were normalized to mean “min” and “max” effects, as determined on each plate. “Min” was defined as the mean of the values of the wells treated with vehicle (DMSO) and which represent 0% inhibition; “max” was defined as the mean of the values of the wells treated with a reference inhibitor and which represent the 100% effect. Values for % Emax and EC50 were determined by best-fitting the normalized data to a curve in Activity Base along a four-parameter logistic nonlinear regression (4PL) model (based on the Levenberg-Marquardt algorithm and defined by the equation below): […]
where: n is 4PMin (bottom of the curve); m is 4PMax (top of the curve); i is IP (inflection point of curve); and p is slope. See Levenberg, K., “A Method for the Solution of Certain Problems in Least Squares”, Quart. Appl. Math. 2, (1944), pp 164-168 and Marquardt, D., “An Algorithm for Least Squares Estimation on Nonlinear Parameters”, SIAM J. Appl. Math. 11, (1963) pp 431-441.
`O=C(N[C@H]1COC[C@@H]1F)c1cn2cc(Cl)cc(-c3ccccc3OCC(F)(F)F)c2n1` [Compound 46, 6-chloro-N-((3S,4R)-4-fluorotetrahydrofuran-3-yl)-8-(2-(2,2,2-trifluoroethoxy)phenyl)imidazo[1,2-a]pyridine-2-carboxamide] returned an EC50 of 4 nM.

Consider `CC(C)(C#N)CNC(=O)c1cn2cc(Cl)cc(-c3ccccc3OCC(F)(F)F)c2n1` [Compound 8, 6-chloro-N-(2-cyano-2-methylpropyl)-8-(2-(2,2,2-trifluoroethoxy)phenyl)imidazo[1,2-a]pyridine-2-carboxamide], for which the EC50 was 4.5 nM. Compound `CC(C)(O)C1CN=C(c2cn3cc(Cl)cc(-c4ccccc4OCC(F)(F)F)c3n2)O1` (stereo not shown) [Compound 76, 2-[2-[6-chloro-8-[2-(2,2,2-trifluoroethoxy)phenyl]imidazo[1,2-a]pyridin-2-yl]-4,5-dihydrooxazol-5-yl]propan-2-ol] had a concentration for a half-maximal effect (EC50) of 13 nM. Take `CC(C)(CO)NC(=O)c1cn2cc(C(F)(F)F)cc(-c3ccccc3OCC(F)(F)F)c2n1` [Compound 37, N-(1-hydroxy-2-methylpropan-2-yl)-8-(2-(2,2,2-trifluoroethoxy)phenyl)-6-(trifluoromethyl)imidazo[1,2-a]pyridine-2-carboxamide]: a half-maximal effect (EC50) was put at 4.5 nM. This EC50 lies about 2.9-fold lower than the previous one. The result for `O=C(NC1CCCC1)c1cn2cc(F)cc(-c3ccccc3OCC(F)(F)F)c2n1` [Compound 28, N-cyclopentyl-6-fluoro-8-(2-(2,2,2-trifluoroethoxy)phenyl)imidazo[1,2-a]pyridine-2-carboxamide] reads 7.4 nM; that for `CC1(NC(=O)c2cn3cc(Cl)cc(-c4ccccc4OCC(F)(F)F)c3n2)CCCOC1` (racemic) [Compound 35, (R and S)-6-chloro-N-(3-methyltetrahydro-2H-pyran-3-yl)-8-(2-(2,2,2-trifluoroethoxy)phenyl)imidazo[1,2-a]pyridine-2-carboxamide], 3.3 nM; that for `O=C(NC12CCC(O)(CC1)C2)c1cn2cc(Cl)cc(-c3ccccc3OCC(F)(F)F)c2n1` [Compound 25, 6-chloro-N-(4-hydroxybicyclo[2.2.1]heptan-1-yl)-8-(2-(2,2,2-trifluoroethoxy)phenyl)imidazo[1,2-a]pyridine-2-carboxamide], 2.5 nM. Take `O=C(N[C@H]1CCOC1)c1cn2cc(Cl)cc(-c3ccccc3OCC(F)(F)F)c2n1` [Compound 5, (S)-6-chloro-N-(tetrahydrofuran-3-yl)-8-(2-(2,2,2-trifluoroethoxy)phenyl)imidazo[1,2-a]pyridine-2-carboxamide]: the EC50 was 0.91 nM. This EC50 is about 2.7-fold lower than that of the compound before. `N#Cc1cc(-c2ccccc2OCC(F)(F)F)c2nc(C(=O)N[C@H]3CC[C@H](O)CC3)cn2c1` [Compound 39, 6-cyano-N-(trans-4-hydroxycyclohexyl)-8-(2-(2,2,2-trifluoroethoxy)phenyl)imidazo[1,2-a]pyridine-2-carboxamide]: the concentration for a half-maximal effect (EC50) was determined as 14 nM.

`O=C(NC1CNCCC1(F)F)c1cn2cccc(-c3ccccc3OCC(F)(F)F)c2n1` (racemic) [Compound 17, (R and S)-N-(4,4-difluoropiperidin-3-yl)-8-(2-(2,2,2-trifluoroethoxy)phenyl)imidazo[1,2-a]pyridine-2-carboxamide] yielded an EC50 of 1.2 nM. For `O=C(Nc1ccc2cccc(-c3ccccc3OCC(F)(F)F)c2n1)[C@H]1C[C@@H](O)C1` [Compound 81, cis-3-hydroxy-N-(8-(2-(2,2,2-trifluoroethoxy)phenyl)quinolin-2-yl)cyclobutane-1-carboxamide] the value was 11 nM; for `CC1(CO)CN=C(c2cn3cc(Cl)cc(-c4ccccc4OCC(F)(F)F)c3n2)O1` (stereo not shown) [Compound 71, (2-(6-chloro-8-(2-(2,2,2-trifluoroethoxy)phenyl)imidazo[1,2-a]pyridin-2-yl)-5-methyl-4,5-dihydrooxazol-5-yl)methanol], 16 nM.

`O=C(N[C@H]1CC[C@H](O)CC1)c1cn2cc(C(F)(F)F)cc(-c3ccccc3OCC(F)(F)F)c2n1` [Compound 36, N-(trans-4-hydroxycyclohexyl)-8-(2-(2,2,2-trifluoroethoxy)phenyl)-6-(trifluoromethyl)imidazo[1,2-a]pyridine-2-carboxamide] registered an EC50 of 2.1 nM. `CC(C)(NC(=O)c1cn2cc(F)cc(-c3ccccc3OCC(F)(F)F)c2n1)C(F)(F)F` [Compound 41, 6-fluoro-N-(1,1,1-trifluoro-2-methylpropan-2-yl)-8-(2-(2,2,2-trifluoroethoxy)phenyl)imidazo[1,2-a]pyridine-2-carboxamide] came in with an EC50 of 1.7 nM. `CN1CC2(C1)CN(C(=O)c1cn3cccc(-c4ccccc4OCC(F)(F)F)c3n1)CCO2` [Compound 49, (2-methyl-5-oxa-2,8-diazaspiro[3.5]nonan-8-yl)(8-(2-(2,2,2-trifluoroethoxy)phenyl)imidazo[1,2-a]pyridin-2-yl)methanone] came in with a concentration for a half-maximal effect (EC50) of 18 nM. For `O=C(c1cn2cccc(-c3ccccc3OCC(F)(F)F)c2n1)N1CCOC2(CCOC2)C1` (racemic) [Compound 50, (R and S)-(2,6-dioxa-9-azaspiro[4.5]decan-9-yl)(8-(2-(2,2,2-trifluoroethoxy)phenyl)imidazo[1,2-a]pyridin-2-yl)methanone] the value was 21 nM. For `OCc1cn2cc(C(F)(F)F)cc(-c3ccccc3OCC(F)(F)F)c2n1` [Compound 62, (8-(2-(2,2,2-trifluoroethoxy)phenyl)-6-(trifluoromethyl)imidazo[1,2-a]pyridin-2-yl)methanol] the value was 17 nM. The result for `COCC(C)(C)NC(=O)c1cn2cccc(-c3ccccc3OCC(F)(F)F)c2n1` [Compound 11, N-(1-methoxy-2-methylpropan-2-yl)-8-(2-(2,2,2-trifluoroethoxy)phenyl)imidazo[1,2-a]pyridine-2-carboxamide] reads 38 nM.

`CC(C)(O)c1cn2cc(Cl)cc(-c3ccc(F)cc3OCC(F)(F)F)c2n1` [Compound 67, 2-(6-chloro-8-(4-fluoro-2-(2,2,2-trifluoroethoxy)phenyl)imidazo[1,2-a]pyridin-2-yl) propan-2-ol] registered an EC50 of 67 nM. The result for `CC(C)(NC(=O)c1cn2cc(C#N)cc(-c3ccccc3OCC(F)(F)F)c2n1)C(F)(F)F` [Compound 44, 6-cyano-N-(1,1,1-trifluoro-2-methylpropan-2-yl)-8-(2-(2,2,2-trifluoroethoxy)phenyl)imidazo[1,2-a]pyridine-2-carboxamide] reads 8.3 nM. As for `N#Cc1cnccc1NC(=O)c1cn2cccc(-c3ccccc3OCC(F)(F)F)c2n1` [Compound 59, N-(3-cyanopyridin-4-yl)-8-(2-(2,2,2-trifluoroethoxy)phenyl)imidazo[1,2-a]pyridine-2-carboxamide], the response was half-maximal at 6 nM (EC50). This EC50 and that of the compound before are within 1.5-fold of each other.

For the compound `CC1(C)CN=C(c2cn3cc(Cl)cc(-c4ccccc4OCC(F)(F)F)c3n2)O1` [Compound 69, 2-(6-chloro-8-(2-(2,2,2-trifluoroethoxy)phenyl)imidazo[1,2-a]pyridin-2-yl)-5,5-dimethyl-4,5-dihydrooxazole], the midpoint of the response, the EC50, lay at 15 nM. Compound `OC(c1cn2cc(Cl)cc(-c3ccccc3OCC(F)(F)F)c2n1)C1CC1` (stereo not shown) [Compound 65, [6-chloro-8-[2-(2,2,2-trifluoroethoxy)phenyl]imidazo[1,2-a]pyridin-2-yl]-cyclopropyl-methanol] had an EC50 of 1.3 nM. As for `O=C(N[C@H]1C[C@@H](CO)C1)c1cn2cccc(-c3ccccc3OCC(F)(F)F)c2n1` [Compound 40], the EC50 was 6.7 nM. For `CC(C)(CO)NC(=O)c1cn2cc(Cl)cc(-c3ccccc3OCC(F)(F)F)c2n1` [Compound 20, 6-chloro-N-(1-hydroxy-2-methylpropan-2-yl)-8-(2-(2,2,2-trifluoroethoxy)phenyl)imidazo[1,2-a]pyridine-2-carboxamide] the value was 0.86 nM; for `O=C(c1cn2cc(Cl)cc(-c3ccccc3OCC(F)(F)F)c2n1)N1C[C@H]2C(CO)[C@@H]2C1` (stereo partly drawn) [Compound 60, (6-chloro-8-(2-(2,2,2-trifluoroethoxy)phenyl)imidazo[1,2-a]pyridin-2-yl)((1R,5R)-6-(hydroxymethyl)-3-azabicyclo[3.1.0]hexan-3-yl)methanone], 30 nM. Regarding `OC(c1cn2cc(F)cc(-c3ccccc3OCC(F)(F)F)c2n1)C1CCOCC1` (stereo not shown) [Compound 68, (6-fluoro-8-(2-(2,2,2-trifluoroethoxy)phenyl)imidazo[1,2-a]pyridin-2-yl)(tetrahydro-2H-pyran-4-yl)methanol], the EC50 worked out at 10 nM. This EC50 is about 3-fold lower than that of the compound before.

With `O=C(N[C@@H]1COC[C@@H]1F)c1cn2cc(Cl)cc(-c3ccccc3OCC(F)(F)F)c2n1` [Compound 45, 6-chloro-N-((3R,4R)-4-fluorotetrahydrofuran-3-yl)-8-(2-(2,2,2-trifluoroethoxy)phenyl)imidazo[1,2-a]pyridine-2-carboxamide], a half-maximal response (EC50) required 4.3 nM.
